# Legend:
# Streptococcus pyogenes = assay: Dalbavancin MIC of baseline isolates; format: cell-based
# [1] = test system: Gram-positive isolates, including MRSA; assay: MIC against Gram-positive isolates / SSTI pathogens; format: cell-based; details: FU assessment
# Rat mass balance study = format: in vivo, Sprague-Dawley rats
# Protocol: Mass balance studies were conducted to determine the excretion pattern of dalbavancin following a single intravenous (IV) infusion of dalbavancin in male rats.
# Water and methanol cage washes were also collected.
# [2] = Rat quantitative tissue distribution (QTD) study; format: in vivo, Sprague-Dawley rats
# Protocol: Quantitative tissue distribution studies were conducted to assess the tissue distribution of dalbavancin following a single IV infusion of dalbavancin to male rats.
# All samples were analyzed by LSC.
# HSA = HSA (Homo sapiens, UniProt P02768); assay: MALDI-TOF mass spectrometry of protein-dalbavancin complexes; format: binding; details: very high dalbavancin:protein ratios (1:2, 1:10)
# HSA, sequence (P02768 25-609): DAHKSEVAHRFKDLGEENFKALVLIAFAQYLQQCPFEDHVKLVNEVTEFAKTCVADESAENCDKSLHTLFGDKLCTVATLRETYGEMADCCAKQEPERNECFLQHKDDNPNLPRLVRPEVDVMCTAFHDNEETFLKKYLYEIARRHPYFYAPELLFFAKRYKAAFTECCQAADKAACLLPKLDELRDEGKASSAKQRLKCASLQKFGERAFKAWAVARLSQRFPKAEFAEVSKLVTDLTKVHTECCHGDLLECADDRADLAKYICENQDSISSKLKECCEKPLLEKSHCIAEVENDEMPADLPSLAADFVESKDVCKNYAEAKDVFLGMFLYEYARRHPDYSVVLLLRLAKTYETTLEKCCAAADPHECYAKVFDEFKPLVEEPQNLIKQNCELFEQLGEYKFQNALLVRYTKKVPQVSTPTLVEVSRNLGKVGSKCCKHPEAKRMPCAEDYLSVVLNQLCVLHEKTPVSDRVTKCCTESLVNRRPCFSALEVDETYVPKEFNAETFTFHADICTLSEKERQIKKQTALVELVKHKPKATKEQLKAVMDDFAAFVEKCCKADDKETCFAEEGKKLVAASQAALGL
# Protocol: The samples were prepared for analysis using the dried droplet technique. Spectra were obtained on a BRUKER FLEX III, tof mass spectrometer previously tuned and calibrated using standard bovine serum albumin, acquiring and averaging spectra generated by 200 laser shots. Matrix: 9 parts of DHB-9 (2,5-dihydroxy-benzoic acid) saturated in acetonitrile/H2O (50:50), 1 part of sinapinic acid saturated in acetonitrile/H2O (50:50). 0.5 μl of sample solution and 0.5 μl of matrix solution were mixed and placed on the laser target. [00179]
smiles,measurement,setting,value
CN[C@H]1C(=O)N[C@@H]2Cc3ccc(cc3)Oc3cc4cc(c3O[C@@H]3O[C@H](C(=O)O)[C@@H](O)[C@H](O)[C@H]3NC(=O)CCCCCCCCC(C)C)Oc3ccc(cc3Cl)[C@@H](O)[C@@H]3NC(=O)[C@H](NC(=O)[C@@H]4NC(=O)[C@@H](NC2=O)c2cc(cc(O)c2Cl)Oc2cc1ccc2O)c1ccc(O)c(c1)-c1c(O[C@H]2O[C@H](CO)[C@@H](O)[C@H](O)[C@@H]2O)cc(O)cc1[C@@H](C(=O)NCCCN(C)C)NC3=O [Dalbavancin],Dalbavancin MIC,Streptococcus pyogenes; MITT isolates of standard of care group,(0.016) mg/L
same,Dalbavancin MIC,Streptococcus pyogenes; MITT isolates of two-dose group,(0.016) mg/L
same,Change in dalbavancin MIC of isolates that persisted,[1],no change
same,dose remaining in the carcass,Rat mass balance study; 70 days post dose,4.5%
same,plasma t1/2,Rat mass balance study; rat,approximately 1 week
same,share of excreted radioactivity eliminated in feces,"Rat mass balance study; single IV 20 mg/kg, male rats",⅓
same,share of excreted radioactivity eliminated in urine,"Rat mass balance study; single IV 20 mg/kg, male rats",⅔
same,administered radioactivity eliminated in urine and feces,Rat mass balance study; within the first week,Approximately half
same,dose recovered in the bile,"[2]; bile duct cannulated rats, over 384 h after the dose",~11%
same,Concentrations of radioactivity in the CNS,[2]; healthy animal model,low but detectable
same,time by which all tissues had quantifiable drug-derived radioactivity,"[2]; post-infusion, 20 mg/kg IV",≤ 12 h
same,"accumulation in tissue, organ or blood cellular component","[2]; rat, in vivo",did not accumulate
same,skin concentrations of drug-derived radioactivity,[2]; relative to plasma,as high as or higher than in plasma
same,Blood to plasma ratio of drug-derived radioactivity,[2]; relatively constant over time,< 1
same,complex with HSA observed by MALDI-TOF,HSA,2 molecules of dalbavancin per protein molecule

# — US20050004011A1, “Compositions and methods for treating bacterial infections with protein-dalbavancin complexes” (priority 2002, published 2005)
